Source: publication PMC8948292, “Combining PEGylated mito-atovaquone with MCT and Krebs cycle redox inhibitors as a potential strategy to abrogate tumor cell proliferation” (Scientific Reports, 2022)
Like-named read-outs stand apart in the source and are kept apart here.

Experiments:
MiaPaCa-2 cells = assay: Cell proliferation (cell confluence), IncuCyte Live-Cell Analysis System; type: cell-based, human; settings: for IC50: Homo sapiens; for Inhibition of cell proliferation in combination with AZD-3965: combined with AZD-3965
Description: The following cell lines were obtained from the American Type Culture Collection (Manassas, VA), where they were regularly authenticated: MiaPaCa-2 (ATCC Cat# CRL-1420, human pancreatic cancer cells), U87MG (ATCC Cat# HTB-14, human brain cancer cells), A549 (ATCC Cat# CCL-185, lung cancer cells), and HCT-116 (ATCC Cat# CCL-247, colon cancer cells). All cell lines were grown at 37 °C in 5% carbon dioxide. MiaPaCa-2 cells were maintained in Dulbecco's Modified Eagle Medium (Thermo Fisher Scientific, Waltham, MA; Cat# 11965) supplemented with 10% fetal bovine serum. U87MG, A549, and HCT-116 cells were maintained in RPMI 1640 medium (Thermo Fisher Scientific, Cat# 11875), supplemented with 10% fetal bovine serum. All cells were stored in liquid nitrogen and used within 20 passages after thawing.
The IncuCyte Live-Cell Analysis System was used to monitor cell proliferation[3],[33],[67]. As shown in previous publications[3],[67], this imaging system is probe-free and noninvasive, and enables continuous monitoring of cell confluence over several days. The increase in the percentage of cell confluence was used as a surrogate marker of cell proliferation. In a 96-well plate, cells were plated at 1,000 cells per well in triplicates and left to adhere overnight. Cells were then treated with Mito-PEG-ATO analogs, and the cell confluency was recorded over several days in the IncuCyte Live-Cell Analysis System.

[1] = target: mitochondrial complex III (MiaPaCa-2 cells) (Homo sapiens, UniProt P00156); assay: Complex III-dependent oxygen consumption in permeabilized cells, Seahorse XF-96; type: cell-based
mitochondrial complex III (MiaPaCa-2 cells), sequence (P00156 whole entry): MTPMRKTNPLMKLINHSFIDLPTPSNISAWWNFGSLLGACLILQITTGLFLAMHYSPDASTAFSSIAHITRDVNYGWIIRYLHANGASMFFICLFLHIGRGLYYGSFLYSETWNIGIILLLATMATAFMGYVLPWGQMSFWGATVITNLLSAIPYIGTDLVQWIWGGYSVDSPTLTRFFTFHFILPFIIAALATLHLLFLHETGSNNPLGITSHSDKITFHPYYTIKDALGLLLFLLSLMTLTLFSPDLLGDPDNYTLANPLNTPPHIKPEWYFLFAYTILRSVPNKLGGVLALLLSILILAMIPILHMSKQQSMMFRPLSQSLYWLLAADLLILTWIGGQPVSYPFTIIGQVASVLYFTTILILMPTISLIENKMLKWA
mitochondrial complex III (MiaPaCa-2 cells), sequence (P47985 whole entry partner): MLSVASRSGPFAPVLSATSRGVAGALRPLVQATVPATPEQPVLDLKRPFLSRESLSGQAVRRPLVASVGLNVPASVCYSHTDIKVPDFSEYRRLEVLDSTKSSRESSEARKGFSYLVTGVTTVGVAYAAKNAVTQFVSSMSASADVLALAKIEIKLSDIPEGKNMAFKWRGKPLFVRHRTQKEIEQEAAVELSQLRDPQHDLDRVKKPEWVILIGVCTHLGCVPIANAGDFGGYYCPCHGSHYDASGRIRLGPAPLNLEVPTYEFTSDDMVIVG
Description: (§1) Mitochondrial oxygen consumption was measured using the Seahorse XF-96 Extracellular Flux Analyzer (Agilent, North Billerica, MA)[3],[33],[67],[68]. To determine the intact cell mitochondrial function of MiaPaCa-2 cells in response to Mito-PEG-ATO analogs, we used the bioenergetic function assay previously described[2],[3]. […] From these measurements, indices of mitochondrial function were determined as previously described[2],[3]. For mitochondrial complex activities assays, after cells were treated with Mito-PEG-ATO analogs for 24 h, the OCR-based assessment of mitochondrial complex activities was carried out on acutely permeabilized cells in the presence of different mitochondrial substrates, i.e., pyruvate/malate for complex I and duroquinol for complex III[3],[32],[34],[69]. Rotenone, malonate, and antimycin A (Sigma-Aldrich, St. Louis, MO) were used as specific inhibitors of mitochondrial complexes I, II, and III, respectively. Briefly, cells that were intact after treatments were immediately permeabilized using the Seahorse XF Plasma Membrane Permeabilizer (Agilent). The mitochondrial complex I-induced OCR was assayed in mannitol and sucrose buffer[69] containing 10 mM pyruvate and 1.5 mM malate (substrates for complex I) and 10 mM malonate (which inhibits complex II activities). The mitochondrial complex III-driven OCR was assayed in a mannitol and sucrose buffer containing 0.5 mM duroquinol (substrate for complex III) as well as 1 µM rotenone and 10 mM malonate (which inhibit both complex I and II activities). The IC50 values were determined as previously reported.

[2] = system: mitochondrial respiration (OCR) in intact MiaPaCa-2 cells; assay: Intact cell mitochondrial respiration (basal OCR), Seahorse XF-96; type: cell-based, human; settings: for OCR (pmol/min/µg protein): intact MiaPaCa-2 cells, baseline OCR, mean, n=4; for IC50: Homo sapiens, read-out: IC50, inhibition of basal OCR in intact cells
Description: as §1

[3] = MiaPaCa-2 cells, 1 µM, control ~90% confluence
[4] = MiaPaCa-2 cells, 3 µM, control ~90% confluence
[5] = MiaPaCa-2 cells, 10 µM, control ~90% confluence

## O=C(Cc1cccc(OC(F)(F)F)c1)Nc1ccc(CCCCc2nnc(NC(=O)Cc3ccccn3)s2)nn1 [CB-839, Telaglenastat, reference compound]
MiaPaCa-2 cells; MIA PaCa-2, MiaPaCa-2 cells, inhibitor alone, control ~90% confluence, read-out: IC50 (cell proliferation) without Mito-PEG5-ATO
  IC50: 19 µM
MiaPaCa-2 cells; MiaPaCa-2 cells, combined with Mito-PEG5-ATO
  Inhibition of cell proliferation in combination with Mito-PEG5-ATO (combination index): exhibits synergy

## O=C1C(OCCOCC[P+](c2ccccc2)(c2ccccc2)c2ccccc2)=C([C@H]2CC[C@H](c3ccc(Cl)cc3)CC2)C(=O)c2ccccc21.[Br-] [Mito-PEG2-ATO, [2-(2-((3-(trans-4-(4-chlorophenyl)cyclohexyl)-1,4-dioxo-1,4-dihydronaphthalen-2-yl)oxy)ethoxy)ethyl]triphenylphosphonium bromide]
[1]; 0.01 µM
  Complex III activity (OCR, % of control): 103.6 % of control
[1]; 0.1 µM
  Complex III activity (OCR, % of control): 95.3 % of control
[1]; 0.2 µM
  Complex III activity (OCR, % of control): 101.4 % of control
[1]; 0.3 µM
  Complex III activity (OCR, % of control): 99.3 % of control
[1]; 0.4 µM
  Complex III activity (OCR, % of control): 99.1 % of control
[1]; 0.5 µM
  Complex III activity (OCR, % of control): 88.9 % of control
[1]; 0.75 µM
  Complex III activity (OCR, % of control): 75.4 % of control
[1]; 1 µM
  Complex III activity (OCR, % of control): 64.3 % of control
[1]; 3 µM
  Complex III activity (OCR, % of control): 15.0 % of control
[1]; MiaPaCa-2 cells, 24 h treatment, antimycin A-inhibitable OCR, read-out: IC50, complex III-induced oxygen consumption (Complex III activity)
  IC50: 1.2 µM
[2]; 0.01 µM, 24 h treatment
  OCR (pmol/min/µg protein): 16.21 pmol/min/µg protein
[2]; 0.1 µM, 24 h treatment
  OCR (pmol/min/µg protein): 14.62 pmol/min/µg protein
[2]; 0.2 µM, 24 h treatment
  OCR (pmol/min/µg protein): 14.19 pmol/min/µg protein
[2]; 0.3 µM, 24 h treatment
  OCR (pmol/min/µg protein): 13.58 pmol/min/µg protein
[2]; 0.4 µM, 24 h treatment
  OCR (pmol/min/µg protein): 12.73 pmol/min/µg protein
[2]; 0.5 µM, 24 h treatment
  OCR (pmol/min/µg protein): 10.74 pmol/min/µg protein
[2]; 0.75 µM, 24 h treatment
  OCR (pmol/min/µg protein): 8.54 pmol/min/µg protein
[2]; 1 µM, 24 h treatment
  OCR (pmol/min/µg protein): 6.82 pmol/min/µg protein
[2]; 3 µM, 24 h treatment
  OCR (pmol/min/µg protein): 1.26 pmol/min/µg protein
[2]; 10 µM, 24 h treatment
  OCR (pmol/min/µg protein): -0.10 pmol/min/µg protein
[2]; MIA PaCa-2, 24 h
  IC50: 0.76 µM
MiaPaCa-2 cells; MIA PaCa-2, read-out: IC50, inhibition of cell proliferation
  IC50: 0.3 µM
MiaPaCa-2 cells; MiaPaCa-2 cells, 0.003 µM, control ~90% confluence
  Cell confluence (% of control): 95.33 % of control
MiaPaCa-2 cells; MiaPaCa-2 cells, 0.01 µM, control ~90% confluence
  Cell confluence (% of control): 101.09 % of control
MiaPaCa-2 cells; MiaPaCa-2 cells, 0.03 µM, control ~90% confluence
  Cell confluence (% of control): 98.91 % of control
MiaPaCa-2 cells; MiaPaCa-2 cells, 0.05 µM, control ~90% confluence
  Cell confluence (% of control): 101.49 % of control
MiaPaCa-2 cells; MiaPaCa-2 cells, 0.1 µM, control ~90% confluence
  Cell confluence (% of control): 100.20 % of control
MiaPaCa-2 cells; MiaPaCa-2 cells, 0.2 µM, control ~90% confluence
  Cell confluence (% of control): 91.59 % of control
MiaPaCa-2 cells; MiaPaCa-2 cells, 0.3 µM, control ~90% confluence
  Cell confluence (% of control): 54.02 % of control
MiaPaCa-2 cells; MiaPaCa-2 cells, 0.5 µM, control ~90% confluence
  Cell confluence (% of control): 5.85 % of control
MiaPaCa-2 cells; [3]
  Cell confluence (% of control): 3.35 % of control
MiaPaCa-2 cells; [4]
  Cell confluence (% of control): 3.28 % of control
MiaPaCa-2 cells; [5]
  Cell confluence (% of control): 2.85 % of control

## CC(=O)N[C@@H](CS)C(=O)O [N-acetylcysteine, reference compound]
MiaPaCa-2 cells; 10 mM, cells treated with Mito-PEG5-ATO, not shown
  Restoration of cell proliferation in cells treated with Mito-PEG5-ATO: did not restore cell proliferation

## COCCOCCOCCOCCOC1=C([C@H]2CC[C@H](c3ccc(Cl)cc3)CC2)C(=O)c2ccccc2C1=O [PEG4-ATO, 2-((2,5,8,11-tetraoxatridecan-13-yl)oxy)-3-(trans-4-(4-chlorophenyl)cyclohexyl)naphthalene-1,4-dione]
[2]; 1 µM, 24 h treatment
  OCR (pmol/min/µg protein): 14.02 pmol/min/µg protein
[2]; 3 µM, 24 h treatment
  OCR (pmol/min/µg protein): 11.47 pmol/min/µg protein
[2]; 10 µM, 24 h treatment
  OCR (pmol/min/µg protein): 8.99 pmol/min/µg protein
[2]; 15 µM, 24 h treatment
  OCR (pmol/min/µg protein): 8.66 pmol/min/µg protein
[2]; 17.5 µM, 24 h treatment
  OCR (pmol/min/µg protein): 8.14 pmol/min/µg protein
[2]; 20 µM, 24 h treatment
  OCR (pmol/min/µg protein): 6.77 pmol/min/µg protein
[2]; 22.5 µM, 24 h treatment
  OCR (pmol/min/µg protein): 6.79 pmol/min/µg protein
[2]; 25 µM, 24 h treatment
  OCR (pmol/min/µg protein): 5.93 pmol/min/µg protein
[2]; 30 µM, 24 h treatment
  OCR (pmol/min/µg protein): 6.26 pmol/min/µg protein
[2]; 40 µM, 24 h treatment
  OCR (pmol/min/µg protein): 4.53 pmol/min/µg protein
[2]; 50 µM, 24 h treatment
  OCR (pmol/min/µg protein): 2.22 pmol/min/µg protein
[2]; MIA PaCa-2, MiaPaCa-2 cells, 24 h treatment
  IC50: 22 µM
MiaPaCa-2 cells; MIA PaCa-2, MiaPaCa-2 cells, determined when control cells reached ~90% confluence, read-out: IC50, inhibition of cell proliferation
  IC50: 24 µM
MiaPaCa-2 cells; [3]
  Cell confluence (% of control): 96.77 % of control
MiaPaCa-2 cells; [4]
  Cell confluence (% of control): 98.45 % of control
MiaPaCa-2 cells; MiaPaCa-2 cells, 5 µM, control ~90% confluence
  Cell confluence (% of control): 92.22 % of control
MiaPaCa-2 cells; [5]
  Cell confluence (% of control): 88.90 % of control
MiaPaCa-2 cells; MiaPaCa-2 cells, 15 µM, control ~90% confluence
  Cell confluence (% of control): 79.02 % of control
MiaPaCa-2 cells; MiaPaCa-2 cells, 20 µM, control ~90% confluence
  Cell confluence (% of control): 50.78 % of control
MiaPaCa-2 cells; MiaPaCa-2 cells, 30 µM, control ~90% confluence
  Cell confluence (% of control): 33.44 % of control
MiaPaCa-2 cells; MiaPaCa-2 cells, 35 µM, control ~90% confluence
  Cell confluence (% of control): 24.27 % of control
MiaPaCa-2 cells; MiaPaCa-2 cells, 40 µM, control ~90% confluence
  Cell confluence (% of control): 17.96 % of control
MiaPaCa-2 cells; MiaPaCa-2 cells, 50 µM, control ~90% confluence
  Cell confluence (% of control): 10.27 % of control

## CN(C)C(=N)N=C(N)N [metformin, reference compound]
MiaPaCa-2 cells; MiaPaCa-2 cells
  Inhibition of cell proliferation in combination with AZD-3965: Synergistic inhibition

## [H]/N=C(/N)N/C(=N/[H])NCCc1ccccc1 [phenformin, reference compound]
MiaPaCa-2 cells; MiaPaCa-2 cells
  Inhibition of cell proliferation in combination with AZD-3965: Synergistic inhibition
